Test results: patent US11927585B2, “Solvent-based inks and coatings for food contact applications” (SUN CHEMICAL CORPORATION, priority 2020, dated 2024)

Key:
[1] = Worst-case calculation (100% migration), standard EU Cube exposure model; conditions: 100% migration; for Worst-case calculation as a percentage of SML (or restriction), EU Cube: 2.0 g/m^2 dry film; for Worst Case Calculation of migration in EU Cube model (as a percentage of SML): dry coat weight 2.0 g/m^2
[2] = Specific migration limit (SML) from regulation or hazard assessment (TTC, VEGA QSAR, Cramer Class); conditions: source HA (internal hazard assessment), self-derived SML; EU Cube model
[3] = Worst-case calculation, Application 1 yoghurt pot lid exposure scenario; conditions: 100% migration, 2.0 g/m^2 dry film
[4] = Worst-case calculation, Application 2 cheese packaging wrap exposure scenario; conditions: 100% migration, 2.0 g/m^2 dry film
[5] = substance in ink SBDEV976 (Ex. 4C Cyan)
[6] = substance in ink SBDEV977 (Ex. 4A Yellow)
[7] = substance in ink SBDEV979 (Ex. 4D Black)
[8] = substance in ink SBDEV980 (Ex. 4B Red)

| SMILES | Worst-case calculation as a percentage of SML (or restriction), EU Cube ([1]; product SBDEV976) | Worst-case calculation as a percentage of SML (or restriction), EU Cube ([1]; product SBDEV977) | Worst-case calculation as a percentage of SML (or restriction), EU Cube ([1]; product SBDEV979) | Worst-case calculation as a percentage of SML (or restriction), EU Cube ([1]; product SBDEV980) | Worst-case calculation as a percentage of SML (or restriction), EU Cube ([1]; product SBDEV1284) | Worst-case calculation as a percentage of SML (or restriction), EU Cube ([1]; product SBDEV1285) | Worst-case calculation as a percentage of SML (or restriction), EU Cube ([1]; product SBDEV1286) | Worst-case calculation as a percentage of SML (or restriction), EU Cube ([1]; product SBDEV1287) | Worst Case Calculation of migration in EU Cube model (as a percentage of SML) [1, 5] | Worst Case Calculation of migration in EU Cube model (as a percentage of SML) [1, 6] | Worst Case Calculation of migration in EU Cube model (as a percentage of SML) [1, 8] | SML or Restriction (mg substance/kg food) [2] [mg substance/kg food] | Worst-case calculation as a percentage of SML (or restriction), Application 1 ([3]; product SBDEV977) | Worst-case calculation as a percentage of SML (or restriction), Application 1 ([3]; product SBDEV980) | Worst-case calculation as a percentage of SML (or restriction), Application 1 ([3]; product SBDEV1285) | Worst-case calculation as a percentage of SML (or restriction), Application 1 ([3]; product SBDEV1287) | Worst-case calculation as a percentage of SML (or restriction), Application 2 ([4]; product SBDEV977) | Worst-case calculation as a percentage of SML (or restriction), Application 2 ([4]; product SBDEV980) | Worst-case calculation as a percentage of SML (or restriction), Application 2 ([4]; product SBDEV1285) | Worst-case calculation as a percentage of SML (or restriction), Application 2 ([4]; product SBDEV1287) | other results |
| --- | --- | --- | --- | --- | --- | --- | --- | --- | --- | --- | --- | --- | --- | --- | --- | --- | --- | --- | --- | --- | --- |
| O=C1NCCN1 [0000120-93-4, 2-Imidazolidinone] | 16 percentage of SML (or restriction) | 15 percentage of SML (or restriction) | 15 percentage of SML (or restriction) | 16 percentage of SML (or restriction) | 11 percentage of SML (or restriction) | 12 percentage of SML (or restriction) | 12 percentage of SML (or restriction) | 11 percentage of SML (or restriction) | 16 percentage of SML | 15 percentage of SML | 16 percentage of SML | 4.98 | 5.9 percentage of SML (or restriction) | 6.3 percentage of SML (or restriction) | 4.7 percentage of SML (or restriction) | 4.3 percentage of SML (or restriction) | 21.6 percentage of SML (or restriction) | 23.0 percentage of SML (or restriction) | 17.3 percentage of SML (or restriction) | 15.8 percentage of SML (or restriction) | Worst Case Calculation of migration in EU Cube model (as a percentage of SML) [1, 7]: 15 percentage of SML; Worst-case calculation as a percentage of SML (or restriction), Application 1 ([3]; product SBDEV976): 6.3 percentage of SML (or restriction); Worst-case calculation as a percentage of SML (or restriction), Application 1 ([3]; product SBDEV979): 5.9 percentage of SML (or restriction); Worst-case calculation as a percentage of SML (or restriction), Application 1 ([3]; product SBDEV1284): 4.3 percentage of SML (or restriction); Worst-case calculation as a percentage of SML (or restriction), Application 1 ([3]; product SBDEV1286): 4.7 percentage of SML (or restriction); Worst-case calculation as a percentage of SML (or restriction), Application 2 ([4]; product SBDEV976): 23.0 percentage of SML (or restriction); Worst-case calculation as a percentage of SML (or restriction), Application 2 ([4]; product SBDEV979): 21.6 percentage of SML (or restriction); Worst-case calculation as a percentage of SML (or restriction), Application 2 ([4]; product SBDEV1284): 15.8 percentage of SML (or restriction); Worst-case calculation as a percentage of SML (or restriction), Application 2 ([4]; product SBDEV1286): 17.3 percentage of SML (or restriction) |
| N#Cc1ccc(-c2ccccc2)cc1 [0002920-38-9, 4-Phenylbenzonitrile] | – | – | – | 5 percentage of SML (or restriction) | – | 5 percentage of SML (or restriction) | – | – | – | – | 5 percentage of SML | 0.09 | – | 2.0 percentage of SML (or restriction) | 2.0 percentage of SML (or restriction) | – | – | 7.2 percentage of SML (or restriction) | 7.2 percentage of SML (or restriction) | – | – |
| O=C(O)c1ccc(-c2ccccc2)cc1 [0000092-92-2, 4-Phenylbenzoic Acid] | – | – | – | 7 percentage of SML (or restriction) | – | 7 percentage of SML (or restriction) | – | – | – | – | 7 percentage of SML | 0.09 | – | 2.8 percentage of SML (or restriction) | 2.8 percentage of SML (or restriction) | – | – | 10.1 percentage of SML (or restriction) | 10.1 percentage of SML (or restriction) | – | – |
| CCCCCCCC/C=C\CCCCCCCC(=O)OCC [0000111-62-6, Ethyl Oleate] | 24.0 percentage of SML (or restriction) | 24.0 percentage of SML (or restriction) | 22.7 percentage of SML (or restriction) | 24.0 percentage of SML (or restriction) | 22.7 percentage of SML (or restriction) | 22.7 percentage of SML (or restriction) | 22.7 percentage of SML (or restriction) | 22.7 percentage of SML (or restriction) | 24.0 percentage of SML | 24 percentage of SML | 24.0 percentage of SML | 0.09 | 9.42 percentage of SML (or restriction) | 9.45 percentage of SML (or restriction) | 8.91 percentage of SML (or restriction) | 8.91 percentage of SML (or restriction) | 34.6 percentage of SML (or restriction) | 34.5 percentage of SML (or restriction) | 32.68 percentage of SML (or restriction) | 32.68 percentage of SML (or restriction) | Worst Case Calculation of migration in EU Cube model (as a percentage of SML) [1, 7]: 22.2 percentage of SML; Worst-case calculation as a percentage of SML (or restriction), Application 1 ([3]; product SBDEV976): 9.42 percentage of SML (or restriction); Worst-case calculation as a percentage of SML (or restriction), Application 1 ([3]; product SBDEV979): 8.92 percentage of SML (or restriction); Worst-case calculation as a percentage of SML (or restriction), Application 1 ([3]; product SBDEV1284): 8.91 percentage of SML (or restriction); Worst-case calculation as a percentage of SML (or restriction), Application 1 ([3]; product SBDEV1286): 8.91 percentage of SML (or restriction); Worst-case calculation as a percentage of SML (or restriction), Application 2 ([4]; product SBDEV976): 34.6 percentage of SML (or restriction); Worst-case calculation as a percentage of SML (or restriction), Application 2 ([4]; product SBDEV979): 32.7 percentage of SML (or restriction); Worst-case calculation as a percentage of SML (or restriction), Application 2 ([4]; product SBDEV1284): 32.68 percentage of SML (or restriction); Worst-case calculation as a percentage of SML (or restriction), Application 2 ([4]; product SBDEV1286): 32.68 percentage of SML (or restriction) |
| O=C1NC(=O)c2ccccc21 [0000085-41-6, Phthalimide] | – | 960 percentage of SML (or restriction) | – | – | – | – | – | 950 percentage of SML (or restriction) | – | 960 percentage of SML | – | 0.09 | 377.6 percentage of SML (or restriction) | – | – | 373.7 percentage of SML (or restriction) | 1382.4 percentage of SML (or restriction) | – | – | 1368.0 percentage of SML (or restriction) | – |
